According to patent publication US20240246992A1, “MACROCYCLIC LRRK2 KINASE INHIBITORS” (LES LABORATOIRES SERVIER, priority 2021, published 2024):
pIC50: −log10 of the molar value.

These molecules were tested against human recombinant LRRK2 protein (Homo sapiens, UniProt Q5S007) (assay: LRRK2 kinase activity assay (ADP-Glo, LRRKtide peptide)). Settings: human recombinant LRRK2 wt, LRRKtide peptide and ATP, 1 h at 37° C.
Format: biochemical
Method in brief: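 Human recombinant LRRK2 reacted with LRRKtide peptide and ATP for 1 h at 37 °C in the presence of compound. ADP formed measured by ADP-Glo luminescence; IC50 fitted from 10 concentrations run in duplicate.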

human recombinant LRRK2 protein, sequence (Q5S007 whole entry): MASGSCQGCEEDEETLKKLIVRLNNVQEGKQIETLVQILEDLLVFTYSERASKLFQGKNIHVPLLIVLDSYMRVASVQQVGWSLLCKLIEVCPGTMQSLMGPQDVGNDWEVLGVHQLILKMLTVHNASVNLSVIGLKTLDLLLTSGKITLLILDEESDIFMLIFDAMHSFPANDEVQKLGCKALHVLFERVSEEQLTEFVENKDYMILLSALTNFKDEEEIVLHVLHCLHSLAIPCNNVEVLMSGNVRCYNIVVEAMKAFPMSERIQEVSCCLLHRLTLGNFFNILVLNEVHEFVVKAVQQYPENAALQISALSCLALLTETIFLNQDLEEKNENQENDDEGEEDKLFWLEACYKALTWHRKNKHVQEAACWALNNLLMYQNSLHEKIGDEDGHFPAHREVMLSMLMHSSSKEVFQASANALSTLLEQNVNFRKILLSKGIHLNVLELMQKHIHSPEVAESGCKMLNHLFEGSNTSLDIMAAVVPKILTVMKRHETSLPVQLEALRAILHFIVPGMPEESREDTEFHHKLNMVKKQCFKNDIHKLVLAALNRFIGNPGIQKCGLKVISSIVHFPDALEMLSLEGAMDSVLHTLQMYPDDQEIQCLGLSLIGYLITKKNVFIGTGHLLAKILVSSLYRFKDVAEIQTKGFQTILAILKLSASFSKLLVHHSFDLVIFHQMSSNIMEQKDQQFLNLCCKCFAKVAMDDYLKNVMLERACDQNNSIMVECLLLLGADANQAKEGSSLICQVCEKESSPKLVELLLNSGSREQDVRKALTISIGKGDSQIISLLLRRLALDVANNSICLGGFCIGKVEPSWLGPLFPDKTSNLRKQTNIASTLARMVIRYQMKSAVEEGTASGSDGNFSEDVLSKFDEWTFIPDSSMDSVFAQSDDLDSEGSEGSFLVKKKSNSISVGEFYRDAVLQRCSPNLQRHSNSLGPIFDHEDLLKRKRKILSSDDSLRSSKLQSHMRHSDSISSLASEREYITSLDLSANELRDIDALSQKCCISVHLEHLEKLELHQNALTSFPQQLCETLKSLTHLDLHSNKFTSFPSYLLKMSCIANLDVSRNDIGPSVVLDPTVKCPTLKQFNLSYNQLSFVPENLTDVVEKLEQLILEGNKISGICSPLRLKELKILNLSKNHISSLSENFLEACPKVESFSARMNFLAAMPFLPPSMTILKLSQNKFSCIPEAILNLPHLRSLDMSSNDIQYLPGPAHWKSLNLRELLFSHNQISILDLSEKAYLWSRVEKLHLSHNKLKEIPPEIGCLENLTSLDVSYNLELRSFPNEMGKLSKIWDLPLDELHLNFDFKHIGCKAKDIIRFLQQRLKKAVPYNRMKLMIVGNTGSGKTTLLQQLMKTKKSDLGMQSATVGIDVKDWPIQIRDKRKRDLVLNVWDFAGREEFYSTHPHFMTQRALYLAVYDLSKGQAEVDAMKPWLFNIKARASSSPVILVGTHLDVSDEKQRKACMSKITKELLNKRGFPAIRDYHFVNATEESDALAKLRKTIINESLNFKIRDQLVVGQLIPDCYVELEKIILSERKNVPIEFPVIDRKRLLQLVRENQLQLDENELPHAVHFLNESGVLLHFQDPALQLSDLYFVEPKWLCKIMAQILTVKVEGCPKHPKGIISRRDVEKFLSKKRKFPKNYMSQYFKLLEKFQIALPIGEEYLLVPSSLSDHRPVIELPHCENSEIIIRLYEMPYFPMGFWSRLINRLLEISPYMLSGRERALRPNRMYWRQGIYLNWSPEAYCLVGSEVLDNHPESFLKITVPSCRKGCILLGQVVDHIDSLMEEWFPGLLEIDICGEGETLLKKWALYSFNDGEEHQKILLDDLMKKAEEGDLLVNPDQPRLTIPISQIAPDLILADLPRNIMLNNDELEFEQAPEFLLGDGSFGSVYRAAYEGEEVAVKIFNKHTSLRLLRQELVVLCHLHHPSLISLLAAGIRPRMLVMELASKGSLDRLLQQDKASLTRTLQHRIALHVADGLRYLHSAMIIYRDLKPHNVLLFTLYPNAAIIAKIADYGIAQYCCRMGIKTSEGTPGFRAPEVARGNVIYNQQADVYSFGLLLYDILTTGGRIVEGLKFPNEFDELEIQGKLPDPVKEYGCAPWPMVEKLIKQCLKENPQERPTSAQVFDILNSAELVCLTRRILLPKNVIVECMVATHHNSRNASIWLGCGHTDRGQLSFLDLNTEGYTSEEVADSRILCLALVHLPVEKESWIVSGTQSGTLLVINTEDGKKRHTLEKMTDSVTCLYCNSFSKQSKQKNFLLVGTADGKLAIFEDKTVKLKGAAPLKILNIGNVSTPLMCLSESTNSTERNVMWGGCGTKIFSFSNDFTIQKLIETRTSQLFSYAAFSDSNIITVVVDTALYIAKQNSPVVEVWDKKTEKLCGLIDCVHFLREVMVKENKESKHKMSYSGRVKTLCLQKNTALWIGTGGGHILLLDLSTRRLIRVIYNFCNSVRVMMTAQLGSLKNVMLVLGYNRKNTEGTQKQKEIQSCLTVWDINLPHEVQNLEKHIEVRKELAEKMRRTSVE

pIC50	Structure (SMILES)
> 8.00	C[C@@H]1CCOCCOc2cncc(n2)-c2n[nH]c3ccc(cc23)O1 [Example 41, (13R)-13-methyl-7,10,14-trioxa-4,19,20,23-tetraazatetracyclo[13.5.2.1^2,6.0^18,21]tricosa-1(20),2(23),3,5,15(22),16,18(21)-heptaene]
> 8.00	C[C@@H]1CNCC[C@H](C)Oc2ccc3[nH]nc(c3c2)-c2cncc(c2)O1 (single isomer, unassigned) [Example 229, (8R or 8S,13S)-8,13-dimethyl-7,14-dioxa-4,10,19,20-tetraazatetracyclo[13.5.2.1^2,6.0^18,21]tricosa-1(20),2,4,6(23),15(22),16,18(21)-heptaene]
> 7.00	COC1CNCCOc2cccc(c2)-c2n[nH]c3ccc(cc23)OC1 (stereo not shown) [Example 171, 12-methoxy-7,14-dioxa-10,19,20-triazatetracyclo[13.5.2.1^2,6.0^18,21]tricosa-1(20),2(23),3,5,15,17,21-heptaene]
> 7.00	C[C@@H]1C[C@@H](C)n2cc(cn2)-c2n[nH]c3ccc(cc23)OCCCO1 [Example 117, (6R,8R)-6,8-dimethyl-9,13-dioxa-4,5,18,19-tetraazatetracyclo[12.5.2.1^2,5.0^17,20] docosa-1(19),2(22),3,14(21),15,17(20)-hexaene]
> 8.00	C[C@@H]1C[C@@H](C)Oc2ccc3[nH]nc(c3c2)-c2cnn(c2)CCCO1 [Example 126, (10R,12R)-10,12-dimethyl-9,13-dioxa-4,5,18,19-tetraazatetracyclo [12.5.2.1^2,5.0^17,20]docosa-1(19),2(22),3,14(21),15,17(20)-hexaene]
< 6.00	C[C@@H]1COCCOCCc2nc(cn2C)-c2n[nH]c3ccc(cc23)O1 [Example 76, (13R)-4,13-dimethyl-8,11,14-trioxa-4,19,20,23-tetraazatetracyclo[13.5.2.1^2,5.0^18,21]tricosa-1(20),2,5(23),15(22),16,18(21)-hexaene]
> 8.00	C[C@H]1COCCOC[C@H](C)n2cc(cn2)-c2n[nH]c3ccc(cc23)O1 [Example 101, (6S,13S)-6,13-dimethyl-8,11,14-trioxa-4,5,19,20-tetraazatetracyclo[13.5.2.1^2,5.0^18,21]tricosa-1(20),2(23),3,15(22),16,18(21)-hexaene]
> 7.00	C[C@H]1CCNC[C@H](C)Oc2cncc(c2)-c2n[nH]c3ccc(cc23)O1 (single isomer, unassigned) [Example 230, (8S or 8R,13S)-8,13-dimethyl-7,14-dioxa-4,10,19,20-tetraazatetracyclo[13.5.2.1^2,6.0^18,21]tricosa-1(20),2,4,6(23),15(22),16,18(21)-heptaene]
> 8.00	C[C@H]1CCNC(=O)CCn2ncc(n2)-c2n[nH]c3ccc(cc23)O1 [Example 226, (12S)-12-methyl-13-oxa-4,5,9,18,19,22-hexaazatetracyclo [12.5.2.1^2,5.0^17,20]docosa-1(19),2(22),3,14(21),15,17(20)-hexaen-8-one]
> 7.00	C[C@@H]1COCCOCC(F)n2cc(cn2)-c2n[nH]c3ccc(cc23)O1 (single isomer, unassigned) [Example 106, (6S*,13R)-6-fluoro-13-methyl-8,11,14-trioxa-4,5,19, 20-tetraazatetracyclo[13.5.2.1^2,5.0^18,21]tricosa-1(20),2(23),3,15(22),16,18(21)-hexaene]
> 7.00	C[C@@H]1CCN(C)CC[C@H](C)n2ncc(n2)-c2n[nH]c3ccc(cc23)O1 [Example 244, (6S,12R)-6,9,12-trimethyl-13-oxa-4,5,9,18,19,22-hexaazatetracyclo[12.5.2.1^2,5.0^17,20]docosa-1(19),2(22),3,14(21),15,17(20)-hexaene]
> 8.00	C[C@@H]1COc2ccc3[nH]nc(c3c2)-c2cnn(c2)CCOCCO1 [Example 67, (12R)-12-methyl-8,11,14-trioxa-4,5,19,20-tetraazatetracyclo[13.5.2.1^2,5.0^18,21]tricosa-1(20),2(23),3,15(22),16,18(21)-hexaene]
> 8.00	C[C@H]1COCCCOc2nc(cc(N3CCCC3)n2)-c2n[nH]c3ccc(cc23)O1 [Example 19, (13S)-13-methyl-4-(pyrrolidin-1-yl)-7,11,14-trioxa-5,19,20,23-tetraazatetra cyclo[13.5.2.1^2,6.0^18,21]tricosa-1(20),2(23),3,5,15(22),16,18(21)heptaene]
> 8.00	C[C@H]1CCOCCOc2nc(cc(N3CCCC3)n2)-c2n[nH]c3ccc(cc23)N1 [Example 39, (13S)-13-methyl-4-(pyrrolidin-1-yl)-7,10-dioxa-5,14,19,20,23-pentaazatetra cyclo[13.5.2.1^2,6.0^18,21]tricosa-1(20),2(23),3,5,15(22),16,18(21)-heptaene]
> 8.00	O=C1CCn2ncc(n2)-c2n[nH]c3ccc(cc23)OC[C@H](F)CN1 [Example 227, (11R)-11-fluoro-13-oxa-4,5,9,18,19,22-hexaazatetracyclo [12.5.2.1^2,5.0^17,20]docosa-1(19),2(22),3,14(21),15,17(20)-hexaen-8-one]
> 8.00	C[C@H]1CCNC(=O)COc2cc(cc(N3CCOCC3)c2)-c2n[nH]c3ccc(cc23)O1 [Example 174, (13S)-13-methyl-4-(morpholin-4-yl)-7,14-dioxa-10,19,20-triazatetracyclo[13.5.2.1^2,6.0^18,21]tricosa-1(20),2(23),3,5,15,17,21-heptaen-9-one]

pIC50	Structure (SMILES)
> 7.00	C[C@@H]1COCCOc2ccc3[nH]nc(c3c2)-c2cnn(c2)CCO1 [Example 60, (9R)-9-methyl-8,11,14-trioxa-4,5,19,20-tetraazatetracyclo[13.5.2.1^2,5.0^18,21] tricosa-1(20),2(23),3,15(22),16,18(21)-hexaene]
> 8.00	COC1CN(c2cc3nc(n2)O[C@H](C)COCC[C@H](C)Oc2ccc4[nH]nc-3c4c2)C1 [Example 44, (8R,13S)-4-(3-methoxyazetidin-1-yl)-8,13-dimethyl-7,10,14-trioxa-5,19,20, 23-tetraazatetracyclo[13.5.2.1^2,6.0^18,21]tricosa-1(20),2(23),3,5,15(22),16, 18(21)-heptaene]
> 8.00	Cc1cc2cc(c1)-c1n[nH]c3ccc(cc13)OCCCNC(=O)CO2 [Example 144, 4-methyl-7,14-dioxa-10,19,20-triazatetracyclo[13.5.2.1^2,6.0^18,21]tricosa-1(20),2(23),3,5,15,17,21-heptaen-9-one]
> 8.00	C1=C/COCCOc2ccc3[nH]nc(c3c2)-c2cnn(c2)CC/1 [Example 121, (8E)-11,14-dioxa-4,5,19,20-tetraazatetracyclo[13.5.2.1^2,5.0^18,21]tricosa-1(20),2(23),3,8,15(22),16,18(21)-heptaene]
> 8.00	C[C@@H]1CCO[C@@H](C)CCn2cc(cn2)-c2n[nH]c3ccc(cc23)O1 [Example 97, (8S,12R)-8,12-dimethyl-9,13-dioxa-4,5,18,19-tetraaza tetracyclo[12.5.2.1^2,5.0^17,20]docosa-1(19),2(22),3,14(21),15,17(20)-hexaene]
> 8.00	c1ncc2cc1OCCCNCCOc1ccc3[nH]nc-2c3c1 [Example 238, 7,14-dioxa-4,11,19,20-tetraazatetracyclo[13.5.2.1^2,6.0^18,21]tricosa-1(20),2,4,6(23),15,17,21-heptaene]
> 7.00	CN1CCCNc2ccc3[nH]nc(c3c2)-c2cncc(c2)OCC1=O [Example 190, 10-methyl-7-oxa-4,10,14,19,20-pentaazatetracyclo[13.5.2.1^2,6.0^18,21]tricosa-1(20),2,4,6(23),15,17,21-heptaen-9-one]
> 7.00	C[C@H]1COc2ccc3[nH]nc(c3c2)-c2cccc(c2)OCC(=O)N[C@@H]1C [Example 215, (11R,12R)-11,12-dimethyl-7,14-dioxa-10,19,20-triazatetracyclo[13.5.2.1^2,6.0^18,21]tricosa-1(20),2,4,6(23),15(22),16,18(21)-heptaen-9-one]
> 8.00	C[C@H]1COCCOCCn2cc(cc2C#N)-c2n[nH]c3ccc(cc23)O1 [Example 72, (13S)-13-methyl-8,11,14-trioxa-5,19,20-triazatetracyclo[13.5.2.1^2,5.0^18,21] tricosa-1(20),2(23),3,15(22),16,18(21)-hexaene-4-carbonitrile]
> 7.00	C[C@@H]1NCCOc2cccc(c2)-c2n[nH]c3ccc(cc23)OC[C@H]1F [Example 184, (11S,12S)-12-fluoro-11-methyl-7,14-dioxa-10,19,20-triazatetracyclo[13.5.2.1^2,6.0^18,21]tricosa-1(20),2,4,6(23),15,17,21-heptaene]
> 7.00	O=C1COc2cccc(c2)-c2n[nH]c3ccc(cc23)OCCCN1 [Example 134, 7,14-dioxa-10,19,20-triazatetracyclo[13.5.2.1^2,6.0^18,21]tricosa-1(20),2(23), 3,5,15(22),16,18(21)-heptaen-9-one]
> 8.00	Cc1cc2nc(n1)OCCCOC[C@H](C)Oc1ccc3[nH]nc-2c3c1 [Example 29, (13S)-4,13-dimethyl-7,11,14-trioxa-5,19,20,23-tetraazatetracyclo[13.5.2.1^2,6.0^18,21]tricosa-1(20),2(23),3,5,15(22),16,18(21)-heptaene]
> 8.00	c1cc2[nH]nc3c2cc1OCCOCCCCn1cc-3cn1 [Example 104, 10,13-dioxa-4,5,18,19-tetraazatetracyclo[12.5.2.1^2,5.0^17,20]docosa-1(19),2(22),3,14(21),15,17(20)-hexaene]
> 8.00	O=C1COc2cc(cc(N3C[C@@H](F)[C@H](F)C3)c2)-c2n[nH]c3ccc(cc23)OCCCN1 [Example 216, 4-[(3R,4R)-3,4-difluoropyrrolidin-1-yl]-7,14-dioxa-10,19,20-triazatetracyclo[13.5.2.1^2,6.0^18,21]tricosa-1(20),2(23),3,5,15,17,21-heptaen-9-one]
> 8.00	C[C@H]1CCOCC[C@H](C)n2cc(cn2)-c2n[nH]c3ccc(cc23)O1 [Example 38, (6S,12S)-6,12-dimethyl-9,13-dioxa-4,5,18,19-tetraazatetracyclo [12.5.2.1^2,5.0^17,20]docosa-1(19),2(22),3,14(21),15,17(20)-hexaene]
